Values joined by “and” are separate entries in the source; they are usually repeats but may differ in a detail not shown here. Equal values may be shown once. Read-outs that look alike come from different tables or passages of the source.

For assay [1], the system named is T1, α4β3^S408A,S409Aδ receptors.
T1 construct: expressed in transfected cells; host or cells: HEK 293
The assay is described as follows: Quantification of spontaneous activity (Ispont) in HEK cells, whole-cell patch clamp. Format: cell-based, mouse. The following applies: for Ispont during staurosporine application: α4β3S408A,S409Aδ, 200 nM staurosporine, individual cells. The source says: (§1) All components were obtained from Life Technologies.
(§2) Currents were acquired with Clampex ver.
(§3) Cells were voltage clamped at −40 mV.
For orientation: The patch-clamp technique gives a direct electrical read-out from membranes.

Assay [2] has as its system T2, α4β3^S408D,S409Dδ receptors.
T2 construct: expressed in transfected cells; host or cells: HEK 293
Described as above. It counts as cell-based, mouse. The following applies: for Ispont during staurosporine application: α4β3S408D,S409Dδ, 200 nM staurosporine, individual cells.
Text: as §1, §2, §3

Assay [3] deals with α4β3δ receptors. Format: cell-based, mouse. Also noted: spontaneous activity, Supp. Fig. 3e: unit not given here. The following applies: for Ispont during staurosporine application: 200 nM staurosporine.
Text: as §1, §2, §3
(§4) For assessment of the efficacy of allosteric modulators on spontaneous activity, compounds were briefly applied (3–5 s) to achieve steady-state currents (IMod). […] The IMod was summed with IPTX (or subtracted for inhibitory modulators) and the Ispont calculated, as described by Eq. (2):2 Ispont(%)=[(IPTX+IMod)/(IPTX+IMax)]×100……………………………………

A further assay concerns T3, α4β3δ GABAARs.
T3 construct: expressed in transfected cells; host or cells: HEK cells (outside-out patches)
The assay is described as follows: Single-channel recording of spontaneous currents, outside-out patches of HEK cells. Format: cell-based, mouse. The following applies: 100 μM PTX, absence of GABA. The procedure:
To limit ion channel density in individual patches, HEK cells were transfected with 5 ng α4, β3, δ and eGFP cDNAs. Resulting spontaneous single-channel currents were digitised at a sampling rate of 20 kHz and filtered at 5 kHz with a 4-pole Bessel filter (24 dB per octave). A fixed time resolution of 80 μs was used as a preset. Recordings were undertaken using thick-walled borosilicate patch pipettes (6–10 MΩ) filled with a solution containing (mM): 145 CsCl, 2.5 NaCl, 10 HEPES, 1 EGTA, 4 MgATP, pH 7.3. Osmolarity was 300 ± 20 mOsm/L. Cells were perfused with an external solution consisting of (mM): 145 NaCl, 2.5 KCl, 1 CaCl2, 1 MgCl2, 10 HEPES, 10 glucose, pH 7.3. Prior control recordings were obtained using untransfected HEK cells to identify endogenous channel currents.
Channel currents were digitally low pass filtered at 1–2 kHz prior to analysis. […] Channel dwell states were identified using a threshold cursor method. This state transition detection method for open and shut events was used to assemble an idealised record of the digitised data. Open times affected by channel stacking were not included in the analyses and sub-conductance states were also rare and excluded from the analysis.
The analysis of the dwell times for single-channel currents was performed by fitting a mixture of exponential components to the open time distributions. These defined the mean open times and their relative proportions (area of the components) based on using a Levenberg-Marquardt non-linear least-squares routine (WinEDR ver 3.8.7, courtesy of J Dempster, University of Strathclyde).

Assay [4] relates to dorsal lateral geniculate nucleus (dLGN) thalamic relay neurons. The assay is described as follows: Tonic current in acute thalamic brain slices.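 For tonic current change with +PTX, Fig. 10b: Holding current density change on antagonist application.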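 For tonic current change with Gabazine, Fig. 10b: Holding current density change on antagonist application.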 It counts as cell-based, rat.
Text: (§5) Adolescent male rats (P21–P28) were anaesthetised by inhalation with 5% isoflurane before dispatch and isolation of the brain in accordance with the United Kingdom Animals (Scientific Procedures) Act 1986. The brain was immersed in an ice-cold slicing solution containing (mM): 85 NaCl, 2.5 KCl, 1.25 NaH2PO4, 26 NaHCO3, 75 sucrose, 1 CaCl2, 4 MgCl2, 25 glucose and 2 kynurenic acid, (pH 7.4 when bubbled with 95% O2/5% CO2). Horizontal (hippocampal) and coronal (thalamic) sections (all 350 µm thick) were cut using a Leica VT1200S vibratome before transfer to a holding chamber at 37 °C. The solution was slowly exchanged over 1 h with aCSF containing (mM): 125 NaCl, 2.5 KCl, 1.25 NaH2PO4, 26 NaHCO3, 2 CaCl2, 1 MgCl2, 25 glucose and 2 kynurenic acid (pH 7.4 when bubbled with 95% O2/5% CO2) before maintaining the slices at room temperature prior to recording.
as §2
(§6) Recordings from hippocampal cultures used ~3–5 MΩ electrodes filled with an internal solution consisting of (mM): 140 CsCl, 2 NaCl, 10 HEPES, 5 EGTA, 2 MgCl2, 0.5 CaCl2, 2 Na2ATP, 0.5 Na2GTP, 2 QX-314, pH 7.3. Osmolarity was 300 ± 20 mOsm/L. Cells were perfused in the same Kreb’s solution described above, except for the addition of 2 mM kynurenic acid. Cells were voltage clamped at −60 mV. For current clamp, cells were recorded using an internal electrode solution consisting of (mM): 137 potassium gluconate, 3 KCl, 10 HEPES, 5 EGTA, 0.5 CaCl2, 2 MgCl2, 2 Na2ATP and 0.5 Na2GTP, pH 7.3. Osmolarity was 300 ± 20 mOsm/L. The external solution was as described for voltage-clamp experiments and the calculated junction potential was ~15 mV. Current was injected to hold cells at −70 mV if required. For slice recordings, slices were perfused in the aCSF described above, and the internal solution was the same as that used for cultured neuronal voltage-clamp recordings.

The test system of assay [5] is dentate gyrus granule cells (DGGCs). The experiment in a line: Tonic current in acute hippocampal brain slices.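 For tonic current change with +PTX, Fig. 10a: Holding current density change on antagonist application.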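 For tonic current change with Gabazine, Fig. 10a: Holding current density change on antagonist application.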 Format: cell-based, rat. Conditions: for Change in holding current: DGGCs.
Text: as §5, §2, §6

In assay [6] the target is T4, α4β3δ receptors (UniProt P18506+P63080+Q9D6F4).
T4 construct: expressed in transfected cells; host or cells: HEK 293
T4 sequence (Q9D6F4 36-552): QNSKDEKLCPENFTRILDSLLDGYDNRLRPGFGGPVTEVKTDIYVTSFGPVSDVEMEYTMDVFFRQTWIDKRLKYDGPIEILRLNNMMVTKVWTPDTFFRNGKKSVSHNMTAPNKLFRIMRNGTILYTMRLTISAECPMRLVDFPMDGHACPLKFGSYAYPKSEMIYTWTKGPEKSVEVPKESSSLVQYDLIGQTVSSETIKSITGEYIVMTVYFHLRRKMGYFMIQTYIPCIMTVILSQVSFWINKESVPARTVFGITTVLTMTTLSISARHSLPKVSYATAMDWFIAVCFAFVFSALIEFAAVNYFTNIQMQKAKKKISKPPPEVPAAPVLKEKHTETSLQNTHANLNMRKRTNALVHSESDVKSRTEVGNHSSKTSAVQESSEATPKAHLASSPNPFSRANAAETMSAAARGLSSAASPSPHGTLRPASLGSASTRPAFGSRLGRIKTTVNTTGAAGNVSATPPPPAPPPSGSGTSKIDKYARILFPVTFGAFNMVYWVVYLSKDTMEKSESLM
T4 sequence (P63080 26-473): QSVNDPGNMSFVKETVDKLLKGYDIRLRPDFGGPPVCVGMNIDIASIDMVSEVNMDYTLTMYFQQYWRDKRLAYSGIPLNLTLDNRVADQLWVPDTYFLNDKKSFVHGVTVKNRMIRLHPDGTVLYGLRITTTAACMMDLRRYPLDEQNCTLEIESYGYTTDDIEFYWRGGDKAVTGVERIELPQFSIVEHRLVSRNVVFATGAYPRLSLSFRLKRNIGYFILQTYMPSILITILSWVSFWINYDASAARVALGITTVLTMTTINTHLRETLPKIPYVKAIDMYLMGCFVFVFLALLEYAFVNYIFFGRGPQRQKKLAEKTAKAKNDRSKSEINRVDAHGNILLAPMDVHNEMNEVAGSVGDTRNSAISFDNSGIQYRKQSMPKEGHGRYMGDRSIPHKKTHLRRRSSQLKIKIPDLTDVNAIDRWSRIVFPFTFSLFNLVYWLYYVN
T4 sequence (P18506 25-449): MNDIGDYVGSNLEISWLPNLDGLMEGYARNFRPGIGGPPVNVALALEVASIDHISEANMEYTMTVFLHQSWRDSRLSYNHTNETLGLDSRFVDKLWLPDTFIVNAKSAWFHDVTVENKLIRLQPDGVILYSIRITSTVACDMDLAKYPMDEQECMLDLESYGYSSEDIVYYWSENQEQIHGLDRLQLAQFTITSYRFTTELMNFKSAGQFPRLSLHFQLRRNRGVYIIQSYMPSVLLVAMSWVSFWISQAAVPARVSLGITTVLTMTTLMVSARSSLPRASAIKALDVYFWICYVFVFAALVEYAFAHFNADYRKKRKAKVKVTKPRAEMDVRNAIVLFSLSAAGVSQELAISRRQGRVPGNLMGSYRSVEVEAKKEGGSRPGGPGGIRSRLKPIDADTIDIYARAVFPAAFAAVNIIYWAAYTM
Format: cell-based, mouse. Also noted: spontaneous activity, Supp. Fig. 3e: unit not given here. The following applies: cells expressing α4, β3 and δ; gabazine 1 µM.
Text: as §1, §2, §3, §4

Assay [7] has as its system cultured hippocampal neurons. The assay is described as follows: Voltage clamp of spontaneous/tonic GABAAR currents in transfected cultured hippocampal neurons. Format: cell-based, rat. Conditions: for Effect on holding current: gabazine 1 μM; for spontaneous/tonic current, Supp. Fig. 4e: concanamycin treated (vs control), individual cells. Here is the method: This media was replaced 2 h later with neurobasal-A media supplemented with 1% v/v B-27, 50 units/ml penicillin-G, 50 µg/ml streptomycin, 0.5% v/v glutamax and 35 mM glucose. These cells were transfected 6–8 days later using either the calcium phosphate protocol described above, or Effectene with a protocol as described by the manufacturer (Qiagen) using a total 0.8 μg of cDNA per coverslip. […] Neurons were used for electrophysiological recording or confocal imaging 5–9 days later.
as §2, §6

The next assay relates to T5, α4β3 receptors.
T5 construct: expressed in transfected cells; host or cells: HEK 293
The experiment in a line: Agonist-evoked whole-cell currents and their modulation by Zn2+ / DS2 in HEK cells. Format: cell-based, mouse. Also noted: GABA current, Supp. Fig. 2b / GABA + DS2 current, Supp. Fig. 2b / GABA current, Supp. Fig. 2a: unit not given here. The following applies: GABA with DS2, individual cells.
Text: as §1, §2, §3

The target of assay [8] is T4, α4β3δ receptors. The description is as above. It counts as cell-based, mouse.
Text: as §1, §2, §3

[9] abbreviates: PTX added after Gabazine, individual cells.
Where [10] appears, read: Gabazine alone, individual cells.
[11] abbreviates: eGFP- and β3-expressing neurons, concanamycin A 0.5 μM.

Description for β3 homomeric receptors: HEK 293 cells were maintained in Dulbecco’s modified Eagle’s medium supplemented with 10% v/v heat-inactivated fetal calf serum, 100 units/ml penicillin-G and 100 µg/ml streptomycin and incubated at 37 °C in humidified 95% air/5% CO2. […] Cells were maintained within a passage range of P12–35. Dissociated HEK cells were plated onto 22 mm glass coverslips (VWR) coated in poly-L-lysine (Sigma). Cells were transfected >1 h later using a calcium phosphate protocol whereby a transfection solution was prepared consisting of 20 μl of 340 mM CaCl2, 24 μl of 2× HBS (50 mM HEPES, 280 mM NaCl, 2.8 mM Na2HPO4) and 4 μg cDNA per coverslip. […] Cells were recorded from 24–48 h later.
For all electrophysiological experiments, cells were visualised using a Nikon Eclipse E600FN microscope. Whole-cell currents were recorded using an Axopatch 200B amplifier and digitised using a Digidata 1322 A (Axon Instruments). […]
HEK cells were recorded from using borosilicate glass electrodes with resistances ~3–5 MΩ when filled with an internal solution containing (mM): 1 MgCl2, 140 KCl, 11 EGTA, 10 HEPES, 1 CaCl2, 2 K2ATP, pH 7.2. Osmolarity was 300 ± 20 mOsm/L, measured using a vapour pressure osmometer (Model 5520, Wescor Inc). […]

Regarding `CN[C@@H]1C[C@H]2O[C@@](C)([C@@H]1OC)n1c3ccccc3c3c4c(c5c6ccccc6n2c5c31)C(=O)NC4` [staurosporine], the “Effect on Ispont over 20 min compared to control” value in assay [1] (phospho-null α4β3^S408A,S409Aδ, staurosporine 200 nM) was “no effect”; in assay [2] (phosphomimetic α4β3^S408D,S409Dδ, staurosporine 200 nM) it was “no effect”. In addition, the “Ispont during staurosporine application” value in [1] (time 1 min) is 7.3% and 8.9% and 6.5% and 29.4%; in assay [1] (time 10 min), 5.4% and 6.9% and 9.5% and 5.6% and 26.6%; in [1] (time 20 min) it was 5.7% and 5.8% and 7.2% and 5%; in [2] (time 1 min), 12.5% and 12.6%; in [2] (time 10 min), 11.9% and 9.4% and 7.9%; in assay [2] (time 20 min), 8.8% and 8.7% and 7.1%. For the same molecule, the “Ispont during staurosporine application” value in the assay on α4β3δ receptors [3] (α4β3δ, time 1 min, individual cells) is “decreased significantly and 13.2% and 6.4% and 6.3%”; in the assay with α4β3δ receptors [3] (α4β3δ, time 10 min, individual cells), 9.3% and 12.3% and 3.2% and 4.6%; with α4β3δ receptors [3] (α4β3δ, time 20 min, individual cells), 7.5% and 8% and 2.3% and 3.8%.

Take picrotoxin [PTX]: the “Effect on spontaneous single-channel currents” value in the assay with α4β3δ GABAARs was “blocked”. For the same molecule, the “tonic current change with +PTX, Fig. 10b” value in assay [4] (setting [9]) is 0.2529 and 0.032 and 0.04 and 0.1019 and 0.1492 and 0.1027 and 0.03878 and 0.06433 and 0.1595 and 0.03636. For the same molecule, the “Effect on residual tonic current” value in assay [4] (dLGN thalamic relay neurons, PTX 100 μM after gabazine) is recorded as “blocked”. For the same molecule, the “Change in holding current” value in [5] (PTX 100 μM after gabazine) is “large reduction in holding current”. For the same molecule, the “tonic current change with +PTX, Fig. 10a” value in assay [5] (setting [9]) is 0.1792 and 0.4018 and 0.1492 and 0.2163 and 0.07528 and 0.1359 and 0.2209 and 0.2596 and 0.5835.

As for `CN(C)CCCn1cc(C2=C(c3c[nH]c4ccccc34)C(=O)NC2=O)c2ccccc21` [bisindolylmaleimide-I], in the assay with α4β3δ receptors [3] (α4β3δ, Bis-I 200 nM internal, 2 min dialysis (Fig. 5e)), the “Ispont with PKC inhibitor in the patch electrode solution” value is “significantly reduced”.

As for “PKA inhibitor peptide 14–22: selective PKA inhibitor peptide (GRTGRRNAI; UniProt P61925 15-23, looked up, fragment)”, the “Ispont with PKA inhibitor in the patch electrode solution” value in the assay with α4β3δ receptors [3] (α4β3δ, PKI 1 μM internal, 2 min dialysis (Fig. 5d)) was “significantly reduced”.

Consider `COc1ccc(-c2ccc(=N)n(CCCC(=O)O)n2)cc1` [gabazine], for which the “Effect on spontaneous holding current” value at α4β3δ receptors [6] is listed as “behaved as an inverse agonist”; with β3 homomeric receptors (β3 alone, gabazine 1 µM), “but not with β3 alone”. In assay [4] (setting [10]), the “tonic current change with Gabazine, Fig. 10b” value is 0.2002 and 0.032 and 0.025 and 0.02996 and 0.07463 and 0.08562 and 0.04525 and 0.03574 and -0.03067 and 0.01818. In addition, the “Effect on tonic current” value in assay [4] (dLGN thalamic relay neurons, gabazine 20 µM) is “part-inhibited”. Moreover, the “Change in holding current” value in [5] (gabazine 20 µM) was “small increments in holding current”. Moreover, the “tonic current change with Gabazine, Fig. 10a” value in assay [5] (setting [10]) was -0.04645 and -0.07728 and -0.0199 and 0.08319 and 0 and -0.01133 and -0.01699 and -0.02885 and -0.01144. For the same molecule, the figures for the “Effect on holding current” value in [7] (eGFP-transfected neurons) and in [7] (β3-transfected neurons) were “small agonist effect” and “partial antagonism”, respectively.

Regarding `C/C=C/[C@H]1O[C@@](O)([C@@H](C)[C@H](O)[C@H](C)[C@H]2OC(=O)/C(OC)=C/C(C)=C/[C@@H](C)[C@@H](O)[C@@H](CC)[C@@H](O)[C@H](C)C/C(C)=C/C=C/[C@@H]2OC)C[C@@H](O[C@H]2C[C@@H](O)[C@H](OC(N)=O)[C@@H](C)O2)[C@@H]1C` [concanamycin A], in assay [7] (eGFP neurons), the “spontaneous/tonic current, Supp. Fig. 4e” value was 1.043 and 0.1205 and 0.1429 and 0.1839 and 0.303 and 0.1613 and 0.3626 and 0.3579. Moreover, in assay [7] (setting [11]), the “Effect on IPSCs” value was “abolished” and the “Effect on PTX-sensitive spontaneous currents” value is listed as “without affecting”. In [7] (β3 neurons), the “spontaneous/tonic current, Supp. Fig. 4e” value is 1.595 and 1.13 and 1.667 and 1.221 and 1.725 and 1.692.

In the case of `CN([C@@H](Cc1ccc(OS(=O)(=O)c2cccc3cnccc23)cc1)C(=O)N1CCN(c2ccccc2)CC1)S(=O)(=O)c1cccc2cnccc12` [KN-62], the “spontaneous activity, Supp. Fig. 3e” value in the assay with α4β3δ receptors [3] (KN-62 treated (vs control), individual cells) was 9.722 and 13.6922 and 18.602 and 3.467 and 9.093 and 9.783 and 14.5969 and 3.449 and 5.659. Further, in the assay with α4β3δ receptors [3] (α4β3δ, KN-62 3 µM internal), the “Effect on Ispont of internally applied CaMKII inhibitor” value is recorded as “no effect”.

On to `O=C(Nc1c(-c2cccs2)nc2ccccn12)c1ccc(Cl)cc1` [DS2], for which the “GABA + DS2 current, Supp. Fig. 2b” value in the assay on α4β3 receptors is 0.04 and 0.14 and 0.11 and 0.09 and 0.26; at α4β3δ receptors [8] (GABA with DS2, individual cells) it was 1.82 and 1.25 and 0.43 and 1.45 and 3.44. For the same molecule, at α4β3δ receptors [8] (DS2 5 μM), the “Effect on 0.3 μM GABA responses” value is recorded as “potentiated”.

Turning to `CCCC(C)C1(CC)C(=O)NC(=O)NC1=O` (stereo not drawn) [pentobarbital], the “Whole-cell current evoked by pentobarbital” value with β3 homomeric receptors (β3, 100 µM pentobarbital, n = 11) is reported as 220 ± 94 pA.

Source of the values: article PMC8443696, “Structural determinants and regulation of spontaneous activity in GABAA receptors” (Nature Communications, 2021).
